# Data as given in ChEMBL document CHEMBL4418912, “Methods of identifying antagonists of the hTAS2R46 bitter taste receptor” (2014).
# The source made the active and inactive calls. No cut-off for these calls is given here.
# Tests used:
# Assay type in all cases: functional, cell-based
# [1] = biological target: T1, Taste receptor type 2 member 46 (Homo sapiens) (UniProt P59540); test: Agonist activity at recombinant human N-terminal rat ST3 receptor-fused TAS2R46 expressed in HEK293T cells co-expressing Galpha16gust44 assessed as increase in intracellular calcium level at 100 uM by FLIPR assay
# T1 sequence (whole entry): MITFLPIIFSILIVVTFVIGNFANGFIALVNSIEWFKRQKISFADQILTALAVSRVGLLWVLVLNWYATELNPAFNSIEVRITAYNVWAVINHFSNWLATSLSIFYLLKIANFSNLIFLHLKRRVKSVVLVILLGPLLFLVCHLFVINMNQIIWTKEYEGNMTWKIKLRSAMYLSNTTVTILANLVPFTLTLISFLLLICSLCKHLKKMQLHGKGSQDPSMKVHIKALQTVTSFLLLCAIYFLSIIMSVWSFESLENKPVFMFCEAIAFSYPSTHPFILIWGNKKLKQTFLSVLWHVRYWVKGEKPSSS
# [2] = biological target: T1, Taste receptor type 2 member 46 (Homo sapiens); test: Antagonist activity at recombinant human N-terminal rat ST3 receptor-fused TAS2R46 expressed in HEK293T cells co-expressing Galpha16gust44 assessed as inhibition of picrotoxinin-induced intracellular calcium level at 100 uM by FLIPR assay
# [3] = biological target: T2, Taste receptor type 2 member 30 (Homo sapiens) (UniProt P59541); test: Antagonist activity at recombinant human N-terminal rat ST3 receptor-fused TAS2R47 expressed in HEK293T cells co-expressing Galpha16gust44 assessed as inhibition of brucine-induced intracellular calcium level at 100 uM by FLIPR assay
# T2 sequence (whole entry): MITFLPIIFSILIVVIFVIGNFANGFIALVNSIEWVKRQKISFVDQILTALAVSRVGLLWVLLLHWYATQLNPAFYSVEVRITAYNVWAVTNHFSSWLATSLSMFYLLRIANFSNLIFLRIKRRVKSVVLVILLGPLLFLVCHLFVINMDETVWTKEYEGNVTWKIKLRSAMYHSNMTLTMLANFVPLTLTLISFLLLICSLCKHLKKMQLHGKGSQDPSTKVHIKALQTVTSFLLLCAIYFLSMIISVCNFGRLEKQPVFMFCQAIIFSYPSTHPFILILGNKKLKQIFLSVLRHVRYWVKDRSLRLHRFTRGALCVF
# [4] = biological target: T3, Taste receptor type 2 member 13 (Homo sapiens) (UniProt Q9NYV9); test: Antagonist activity at recombinant human N-terminal rat ST3 receptor-fused TAS2R13 expressed in HEK293T cells co-expressing Galpha16gust44 assessed as inhibition of denatonium benzoate-induced increase in intracellular calcium level at 100 uM by FLIPR assay
# T3 sequence (whole entry): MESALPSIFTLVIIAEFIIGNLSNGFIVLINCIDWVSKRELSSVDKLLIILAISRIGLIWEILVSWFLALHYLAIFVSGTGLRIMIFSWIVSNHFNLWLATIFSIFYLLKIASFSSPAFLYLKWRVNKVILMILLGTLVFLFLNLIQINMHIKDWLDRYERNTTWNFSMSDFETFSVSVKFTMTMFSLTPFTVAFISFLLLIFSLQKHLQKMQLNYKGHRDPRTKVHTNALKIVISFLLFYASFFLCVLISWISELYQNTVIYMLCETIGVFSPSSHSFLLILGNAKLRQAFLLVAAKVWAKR
# [5] = biological target: T4, Taste receptor type 2 member 10 (Homo sapiens) (UniProt Q9NYW0); test: Agonist activity at recombinant human N-terminal rat ST3 receptor-fused TAS2R10 expressed in HEK293T cells co-expressing Galpha16gust44 assessed as increase in intracellular calcium level at 100 uM by FLIPR assay
# T4 sequence (whole entry): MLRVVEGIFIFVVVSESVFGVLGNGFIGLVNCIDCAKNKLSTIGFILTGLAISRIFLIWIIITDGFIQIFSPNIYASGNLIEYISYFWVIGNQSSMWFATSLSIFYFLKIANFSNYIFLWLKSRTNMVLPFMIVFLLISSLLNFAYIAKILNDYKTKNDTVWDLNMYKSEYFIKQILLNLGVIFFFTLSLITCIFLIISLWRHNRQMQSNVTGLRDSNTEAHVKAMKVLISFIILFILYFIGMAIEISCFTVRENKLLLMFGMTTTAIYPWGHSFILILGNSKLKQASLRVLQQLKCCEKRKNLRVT
# [6] = biological target: T5, Taste receptor type 2 member 16 (Homo sapiens) (UniProt Q9NYV7); test: Antagonist activity at recombinant human N-terminal rat ST3 receptor-fused TAS2R16 expressed in HEK293T cells co-expressing Galpha16gust44 assessed as inhibition of D-salicin-induced increase in intracellular calcium level at 100 uM by FLIPR assay
# T5 sequence (whole entry): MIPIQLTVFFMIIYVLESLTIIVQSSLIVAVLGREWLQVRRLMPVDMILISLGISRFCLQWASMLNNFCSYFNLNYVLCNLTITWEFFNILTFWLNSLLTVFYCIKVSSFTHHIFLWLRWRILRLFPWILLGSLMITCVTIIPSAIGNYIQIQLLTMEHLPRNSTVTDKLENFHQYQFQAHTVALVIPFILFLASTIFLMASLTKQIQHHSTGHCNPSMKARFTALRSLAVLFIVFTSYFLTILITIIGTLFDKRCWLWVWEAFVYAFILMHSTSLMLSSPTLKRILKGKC
# [7] = biological target: T6, Taste receptor type 2 member 4 (Homo sapiens) (UniProt Q9NYW5); test: Antagonist activity at recombinant human N-terminal rat ST3 receptor-fused TAS2R4 expressed in HEK293T cells co-expressing Galpha16gust44 assessed as inhibition of colchicine-induced increase in intracellular calcium level at 100 uM by FLIPR assay
# T6 sequence (whole entry): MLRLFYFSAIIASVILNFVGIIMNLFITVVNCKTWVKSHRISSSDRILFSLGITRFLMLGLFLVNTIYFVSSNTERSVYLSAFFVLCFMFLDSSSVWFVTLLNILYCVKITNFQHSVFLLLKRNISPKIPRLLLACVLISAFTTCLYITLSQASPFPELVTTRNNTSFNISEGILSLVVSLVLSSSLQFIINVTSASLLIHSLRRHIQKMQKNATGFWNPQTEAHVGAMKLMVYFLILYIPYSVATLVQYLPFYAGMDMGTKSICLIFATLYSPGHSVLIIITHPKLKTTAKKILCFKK
# [8] = biological target: T7, Taste receptor type 2 member 1 (Homo sapiens) (UniProt Q9NYW7); test: Antagonist activity at recombinant human N-terminal rat ST3 receptor-fused TAS2R1 expressed in HEK293T cells co-expressing Galpha16gust44 assessed as inhibition of trans-isocohumulone-induced increase in intracellular calcium level at 100 uM by FLIPR assay
# T7 sequence (whole entry): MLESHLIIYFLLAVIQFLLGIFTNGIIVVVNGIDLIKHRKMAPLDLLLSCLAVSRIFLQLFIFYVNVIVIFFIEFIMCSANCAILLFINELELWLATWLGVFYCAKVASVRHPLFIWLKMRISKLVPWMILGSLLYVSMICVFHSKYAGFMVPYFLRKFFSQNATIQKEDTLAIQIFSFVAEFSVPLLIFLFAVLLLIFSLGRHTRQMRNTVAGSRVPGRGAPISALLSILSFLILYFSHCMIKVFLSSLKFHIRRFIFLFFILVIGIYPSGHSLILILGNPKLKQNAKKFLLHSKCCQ
Structure (SMILES),Activity [1],inhibition [2],inhibition [3],inhibition [4],Activity [5],inhibition [6],inhibition [7],inhibition [8]
C/C1=C\C[C@H](O)[C@@H](C)C[C@H]2OC(=O)[C@@H](C)[C@@H]2CC1,Active,Active,Active,inactive,Active,inactive,inactive,inactive
C/C1=C\C[C@H](O)/C(C)=C/[C@H]2OC(=O)[C@@H](C)[C@@H]2CC1,inactive,Active,Active,inactive,Active,inactive,inactive,inactive
